In brackets after ≈: the same amount, converted by molar mass. Where two headings read alike, the source gives them in different places.
Legend:
[1] = system: HCl-ethanol ulcer in the gland gastric region; experiment: HCl-ethanol ulcer; type: in vivo, Rats
Method: HCl-ethanol Ulcer Rats were fasted for 24 hours and orally administered with a drug. After one hour, 60% ethanol containing 0.15 N hydrochloric acid (1 ml/rat) was perorally administered to each rat. One hour after ethanol administration, the size of ulcer in the gland gastric region was measured for evaluation of anti-ulcer effects of the drug.

[2] = system: rat red blood cell; experiment: Hemolytic action; type: cell-based; details: 10% rat red blood cell stock, 1% DMSO containing saline, 30 minutes at 37° C., absorbance 540 nm
Method: Hemolytic Action […] After incubation for 30 minutes at, 37° C., the mixture was centrifugally separated and the supernatant was obtained. The absorbance (540 nm) of the supernatant was measured. The hemolysis ratio was calculated.

[3] = system: ethanol ulcer in the gland gastric region; experiment: Ethanol ulcer; type: in vivo; details: rats fasted 24 hours, drug oral, 99.5% ethanol 1 ml/rat after one hour, size of ulcer one hour later; for Suppression: dose not given
Method: Ethanol Ulcer Rats were fasted for 24 hours and orally administered with a drug. After one hour, 99.5% ethanol (1 ml/rat) was fed through oral administration. After one hour of ethanol administration, the abdomens of the rats were dissected and the size of ulcer in the gland gastric region was measured for each rat.

[4] = target: H/K-ATPase (Oryctolagus cuniculus, UniProt P27112); experiment: H/K-ATPase inhibition; type: biochemical; details: pH 7.4, H/K-ATPase from rabbit gastric mucous membrane
Chain of H/K-ATPase (P27112 whole entry): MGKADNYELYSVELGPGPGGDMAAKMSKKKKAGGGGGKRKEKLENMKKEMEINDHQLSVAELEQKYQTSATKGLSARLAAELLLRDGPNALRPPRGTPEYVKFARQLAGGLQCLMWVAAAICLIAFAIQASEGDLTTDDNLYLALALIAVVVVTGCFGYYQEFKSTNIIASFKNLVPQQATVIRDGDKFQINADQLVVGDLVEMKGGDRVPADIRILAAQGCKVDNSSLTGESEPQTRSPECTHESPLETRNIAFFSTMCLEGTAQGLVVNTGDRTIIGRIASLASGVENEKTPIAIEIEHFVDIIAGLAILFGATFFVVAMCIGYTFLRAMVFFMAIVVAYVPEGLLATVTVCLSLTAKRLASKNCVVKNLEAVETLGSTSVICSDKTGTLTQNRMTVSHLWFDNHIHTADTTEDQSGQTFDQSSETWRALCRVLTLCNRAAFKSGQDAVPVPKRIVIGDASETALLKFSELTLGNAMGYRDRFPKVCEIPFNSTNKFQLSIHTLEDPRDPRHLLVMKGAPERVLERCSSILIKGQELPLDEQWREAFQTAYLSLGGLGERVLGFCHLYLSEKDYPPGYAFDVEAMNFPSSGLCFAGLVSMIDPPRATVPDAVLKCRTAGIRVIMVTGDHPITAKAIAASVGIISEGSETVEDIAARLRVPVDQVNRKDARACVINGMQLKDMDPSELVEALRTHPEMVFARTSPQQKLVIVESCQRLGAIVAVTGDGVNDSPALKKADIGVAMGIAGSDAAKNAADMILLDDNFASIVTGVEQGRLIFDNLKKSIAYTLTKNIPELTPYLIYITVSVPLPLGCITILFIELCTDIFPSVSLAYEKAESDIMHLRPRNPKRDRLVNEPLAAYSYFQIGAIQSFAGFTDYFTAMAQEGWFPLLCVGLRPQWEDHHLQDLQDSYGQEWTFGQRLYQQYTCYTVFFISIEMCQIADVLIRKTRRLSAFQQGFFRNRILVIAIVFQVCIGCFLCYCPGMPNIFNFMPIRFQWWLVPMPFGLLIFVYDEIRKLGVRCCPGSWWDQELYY
Chain of H/K-ATPase (P18597 whole entry partner): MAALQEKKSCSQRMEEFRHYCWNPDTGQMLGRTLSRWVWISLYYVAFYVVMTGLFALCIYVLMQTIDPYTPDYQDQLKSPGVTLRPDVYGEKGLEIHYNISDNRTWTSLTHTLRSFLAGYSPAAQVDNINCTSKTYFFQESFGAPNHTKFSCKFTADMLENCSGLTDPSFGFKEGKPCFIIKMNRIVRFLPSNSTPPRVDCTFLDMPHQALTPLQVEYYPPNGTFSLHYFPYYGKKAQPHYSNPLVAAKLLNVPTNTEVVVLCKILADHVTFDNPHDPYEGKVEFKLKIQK
Method: H/K-ATPase Inhibition The inhibitory effect was measured under pH 7.4, by using H/K-ATPase isolated and purified from the rabbit gastric mucous membrane.

[5] = system: Helicobacter pylori; experiment: Anti-Helicobacter-pylori action (agar plate dilution MIC); type: cell-based; details: clinically isolated 10 bacterial strains, agar plate dilution method
Method: Anti-Helicobacter-pylori Action
Using clinically isolated 10 bacterial strains, the minimum inhibitory concentration (MIC) was measured according to the agar plate dilution method.

[6] = rats fasted 24 hours, drug oral, 60% ethanol containing 0.15 N hydrochloric acid 1 ml/rat after one hour, size of ulcer one hour later, dose not given
[7] = Helicobacter pylori, read-out: MIC

Structure (SMILES) | Suppression [1, 6] | HC50 [2] | IC50 [4] | further results
CN(C)CCN(c1ccccc1NCCOc1ccccc1)S(=O)(=O)c1ccc(Cl)cc1.Cl [Example 50, N-[2-(Dimethylamino)ethyl]-N-(4-chlorobenzenesulfonyl)-N′-(2-phenoxyethyl)-o-phenylenediamine Hydrochloride] | 81% | >100 µg/mL | – | –
CCS(=O)(=O)N(CCN(C)C)c1ccccc1NCCOc1ccc(Cl)cc1.Cl [Example 30, N-[2-(Dimethylamino)ethyl]-N-ethanesulfonyl-N′-[2-(4-chlorophenoxy)ethyl]-o-phenylenediamine Hydrochloride] | – | >100 µg/mL | – | –
NCCOCCN(c1ccccc1NCCOc1ccc(Cl)cc1)S(=O)(=O)c1ccc(Cl)cc1.O=C(O)C(O)C(O)C(=O)O [Example 4, N-[2-(2-Aminoethoxy)ethyl]-N-(4-chlorobenzenesulfonyl)-N′-[2-(4-chlorophenoxy)ethyl]-o-phenylenediamine Tartaric Acid Salt] | – | – | 7.4 µM | Suppression [3]: 85%; ED50 ([3]; read-out: ED50): 5.3 mg/kg; MIC [5, 7]: 25 to 50 µg/mL
CN(C)CCN(c1ccccc1N1CCNCC1)S(=O)(=O)c1ccc(Cl)cc1.Cl [Example 129, 2-(1-Piperazino)-1-[N-[2-(dimethylamino)ethyl]-N-(4-chlorobenzenesulfonyl)]aminobenzene Hydrochloride Salt] | – | >100 µg/mL | – | –
CN(C)CCN(c1ccccc1NCCOc1cccc(Cl)c1)S(=O)(=O)c1ccc(Cl)cc1.Cl [Example 58, N-[2-(Dimethylamino)ethyl]-N-(4-chlorobenzenesulfonyl)-N′-[2-(3-chlorophenoxy)ethyl]-o-phenylenediamine Hydrochloride] | 88% | 71.2 µg/mL | – | –
CS(=O)(=O)N(CCOCCN)c1ccccc1NCCOc1ccc(Cl)cc1 [Example 22, N-[2-(2-Amino)ethoxyethyl]-N-(methanesulfonyl)-N′-[2-(4-chloro)phenoxyethyl]-o-phenylenediamine] | – | 55.7 µg/mL | 190 µM | –
CN(C)CCN(c1ccccc1N1CCOCC1)S(=O)(=O)c1ccc(Cl)cc1.Cl [Example 128, 2-(4-Morpholino)-1-[N-[2-(dimethylamino)ethyl]-N-(4-chlorobenzenesulfonyl)]aminobenzene Hydrochloride Salt] | – | >100 µg/mL | – | –
CN(C)CCN(c1ccccc1NCCOc1ccc(Cl)cc1)S(=O)(=O)c1ccc(Cl)cc1.CN(C)CCN(c1ccccc1NCCOc1ccc(Cl)cc1)S(=O)(=O)c1ccc(Cl)cc1.O=C(O)C(O)C(O)C(=O)O [Example 3, N-(4-Chlorobenzenesulfonyl)-N-(2-dimethylaminoethyl)-N′-[2-(4-chlorophenoxy)ethyl]-o-phenylenediamine ½ Tartaric Acid Salt] | 91% | 72.3 µg/mL | – | ED50 [3]: 14 mg/kg; Suppression [3]: 88%; MIC [5]: 0.78 to 3.13 µg/mL
CCCCCCS(=O)(=O)N(CCN(C)C)c1ccccc1NCCOc1ccc(Cl)cc1.Cl [Example 32, N-[2-(Dimethylamino)ethyl]-N-(1-hexanesulfonyl)-N′-[2-(4-chlorophenoxy)ethyl]-o-phenylenediamine Hydrochloride] | 88% | >100 µg/mL | – | –
CC(C)S(=O)(=O)N(CCOCCN)c1ccccc1NCCOc1ccc(Cl)cc1 [Example 25, N-[2-(2-Amino)ethoxyethyl]-N-(2-propanesulfonyl)-N′-[2-(4-chlorophenoxy)ethyl]-o-phenylenediamine] | – | 120 µg/mL | 140 µM | –
CN(C)CCN(c1ccccc1NCCOc1ccc(Cl)cc1)S(=O)(=O)c1ccc(F)cc1.Cl [Example 42, N-[2-(Dimethylamino)ethyl]-N-(4-fluorobenzenesulfonyl)-N′-[2-(4-chlorophenoxy)ethyl]-o-phenylenediamine Hydrochloride] | 91% | >100 µg/mL | – | –
CCS(=O)(=O)N(CCOCCN)c1ccccc1NCCOc1ccc(Cl)cc1 [Example 23, N-[2-(2-Amino)ethoxyethyl]-N-(1-ethanesulfonyl)-N′-[2-(4-chlorophenoxy)ethyl]-o-phenylenediamine] | – | – | 230 µM | Suppression [3]: 98%
CCCCCCCS(=O)(=O)N(CCOCCN)c1ccccc1NCCOc1ccc(Cl)cc1 [Example 29, N-[2-(2-Amino)ethoxyethyl]-N-(1-heptanesulfonyl)-N′-[2-(4-chlorophenoxy)ethyl]-o-phenylenediamine] | – | – | 5 µM | –
NCCOCCN(c1ccccc1Oc1ccc(Cl)cc1)S(=O)(=O)c1ccc(Cl)cc1 [Example 144, 1-[N-[2-(2-Aminoethoxy)ethyl]-N-(4-chlorobenzenesulfonyl)]-2-(4-chlorophenoxy)aniline] | – | – | 11.4 µM | MIC [5, 7]: 25 to 50 µg/mL (≈ 51.9 to 104 µM)
CCCCCCS(=O)(=O)N(CCOCCN)c1ccccc1NCCOc1ccc(Cl)cc1 [Example 28, N-[2-(2-Amino)ethoxyethyl]-N-(1-hexanesulfonyl)-N′-[2-(4-chlorophenoxy)ethyl]-o-phenylenediamine] | – | – | 79 µM | Suppression [3]: 100%
CN(C)CCN(c1ccccc1N1CCCN(c2ccc(Cl)cc2)CC1)S(=O)(=O)c1ccc(Cl)cc1.Cl [Example 135, 2-[4-(4-Chlorophenyl)-1-homopiperazino]-1-[N-[2-(dimethylamino)ethyl]-N-(4-chlorobenzenesulfonyl)]aminobenzene.HCl] | 89% | – | – | –
CN(C)CCN(c1ccccc1NCCOc1ccc(Cl)cc1)S(=O)(=O)c1cccc2cnccc12.Cl [Example 57, N-[2-(Dimethylamino)ethyl]-N-(5-isoquinolinesulfonyl)-N′-[2-(4-chlorophenoxy)ethyl]-o-phenylenediamine Hydrochloride] | – | >100 µg/mL | – | –
CN(C)CCN(c1ccccc1N1CCN(c2ccc(Cl)cc2)CC1)S(=O)(=O)c1ccc(Cl)cc1 [Example 132, 2-[4-(4-Chlorophenyl)-1-piperazino]-1-[N-[2-(dimethylamino)ethyl]-N-(4-chlorobenzenesulfonyl)]aminobenzene] | 88% | – | – | MIC [5]: 3.13 to 12.5 µg/mL
CN(C)CCN(c1ccccc1NCCOc1ccc(Cl)cc1)S(=O)(=O)c1cccc(Cl)c1.Cl [Example 52, N-[2-(Dimethylamino)ethyl]-N-(3-chlorobenzenesulfonyl)-N′-[2-(4-chlorophenoxy)ethyl]-o-phenylenediamine Hydrochloride] | 87% | – | – | –
CN(C)CCN(c1ccccc1N(C)CCOc1ccc(Cl)cc1)S(=O)(=O)c1ccc(Cl)cc1.Cl [Example 69] | 99% | – | – | –
CN(C)CCN(c1ccccc1NCCOc1ccc(Cl)cc1)S(=O)(=O)c1ccccc1Cl.Cl [Example 51, N-[2-(Dimethylamino)ethyl]-N-(2-chlorobenzenesulfonyl)-N′-[2-(4-chlorophenoxy)ethyl]-o-phenylenediamine Hydrochloride] | 83% | 84.6 µg/mL | – | –
CN(C)CCN(c1ccccc1NCCOc1ccc(Cl)cc1)S(=O)(=O)c1cccc2ccccc12.Cl [Example 38, N-[2-(Dimethylamino)ethyl]-N-(1-naphthalenesulfonyl)-N′-[2-(4-chlorophenoxy)ethyl]-o-phenylenediamine Hydrochloride] | 93% | – | – | –
CN(C)CCN(c1ccccc1Oc1ccc(Cl)cc1)S(=O)(=O)c1ccc(Cl)cc1.Cl [Example 145, 1-[N-[2-(Dimethylamino)ethyl]-N-(4-chlorobenzenesulfonyl)]-2-(4-chlorophenoxy)aniline.HCl] | – | >100 µg/mL | – | –
CN(C)CCN(c1ccccc1NCCOc1ccc(F)cc1)S(=O)(=O)c1ccc(Cl)cc1.Cl [Example 48, N-[2-(Dimethylamino)ethyl]-N-(4-chlorobenzenesulfonyl)-N′-[2-(4-fluorophenoxy)ethyl]-o-phenylenediamine Hydrochloride] | 85% | – | – | –
COc1ccc(S(=O)(=O)N(CCN(C)C)c2ccccc2NCCOc2ccc(Cl)cc2)cc1.Cl [Example 40, N-[2-(Dimethylamino)ethyl]-N-(4-methoxybenzenesulfonyl)-N′-[2-(4-chlorophenoxy)ethyl]-o-phenylenediamine Hydrochloride] | 88% | >100 µg/mL | – | –
CN(C)CCN(c1ccccc1NCCOc1ccc(Cl)cc1)S(=O)(=O)c1ccc(Br)cc1.Cl [Example 44, N-[2-(Dimethylamino)ethyl]-N-(4-bromobenzenesulfonyl)-N′-[2-(4-chlorophenoxy)ethyl]-o-phenylenediamine.HCl] | – | – | – | Suppression ([1]; rat, in vivo, po): 87%
CCCCCS(=O)(=O)N(CCOCCN)c1ccccc1NCCOc1ccc(Cl)cc1 [Example 27, N-[2-(2-Amino)ethoxyethyl]-N-(1-pentanesulfonyl)-N′-[2-(4-chlorophenoxy)ethyl]-o-phenylenediamine] | – | – | 38 µM | –
NCCN(c1cccnc1NCCNc1ccc(Cl)cc1)S(=O)(=O)c1ccc(Cl)cc1 [Example 86, 3-[N-(4-Chlorobenzenesulfonyl)-N-(2-aminoethyl)]amino-2-[2-(4-chlorophenyl)aminoethyl]aminopyridine] | – | – | 1.1 µM | Suppression [3]: 79%

— US6403607B1, “Sulfonamide derivatives and drugs containing the same as the active ingredient” (priority 1998, dated 2002)
